Test [1] concerns the target Homeodomain-interacting protein kinase 2 (Homo sapiens) (UniProt Q9H2X6). Put plainly: Inhibition of wild-type human partial length HIPK2 (M153 to S564 residues) expressed in mammalian expression system at 1 uM by Kinomescan method relative to control.
Test [2] concerns the target Dual specificity mitogen-activated protein kinase kinase 7 (Homo sapiens) (UniProt O14733). Put plainly: Inhibition of wild-type human full length MKK7 (M1 to R419 residues) expressed in mammalian expression system at 1 uM by Kinomescan method relative to control.
Test [3] concerns the target Serine/threonine-protein kinase TAO1 (Homo sapiens) (UniProt Q7L7X3). Briefly: Inhibition of wild-type human partial length TAOK1 (M1 to A320 residues) expressed in mammalian expression system at 1 uM by Kinomescan method relative to control.
Test [4] concerns the target G protein-coupled receptor kinase 4 (Homo sapiens) (UniProt P32298). Put plainly: Inhibition of wild-type human full length GRK4 (M1 to C578 residues) expressed in bacterial expression system at 1 uM by Kinomescan method relative to control.
For test [5], the target named is Protein kinase C eta type (Homo sapiens) (UniProt P24723). Put plainly: Inhibition of wild-type human partial length PRKCH (S324 to P683 residues) expressed in bacterial expression system at 1 uM by Kinomescan method relative to control.
The target of test [6] is LIM domain kinase 1 (Homo sapiens) (UniProt P53667). Put plainly: Inhibition of wild-type human full length LIMK1 (M1 to D647 residues) expressed in bacterial expression system at 1 uM by Kinomescan method relative to control.
The target in test [7] is Calcium-dependent protein kinase 1 (Plasmodium falciparum) (UniProt P62344). Briefly: Inhibition of wild-type Plasmodium falciparum full length CDPK1 (M1 to S524 residues) expressed in mammalian expression system at 1 uM by Kinomescan method relative to control.
Test [8] has as its target Transient receptor potential cation channel subfamily M member 6 (Homo sapiens) (UniProt Q9BX84). Briefly: Inhibition of wild-type human partial length TRPM6 (Q1723 to I1998 residues) expressed in mammalian expression system at 1 uM by Kinomescan method relative to control.
In test [9] the target is Serine/threonine-protein kinase Nek2 (Homo sapiens) (UniProt P51955). Put plainly: Inhibition of wild-type human partial length NEK2 (M1 to K309 residues) expressed in bacterial expression system at 1 uM by Kinomescan method relative to control.
The target of test [10] is Leukocyte tyrosine kinase receptor (Homo sapiens) (UniProt P29376). Put plainly: Inhibition of wild-type human partial length LTK (P422 to S744 residues) expressed in bacterial expression system at 1 uM by Kinomescan method relative to control.
Test [11] deals with Serine/threonine-protein kinase Sgk2 (Homo sapiens) (UniProt Q9HBY8). Put plainly: Inhibition of wild-type human partial length SGK2 (L54 to C427 residues) expressed in mammalian expression system at 1 uM by Kinomescan method relative to control.
Sequence of Serine/threonine-protein kinase Sgk2 (Homo sapiens) (Q9HBY8 whole entry, the tested form may be a part): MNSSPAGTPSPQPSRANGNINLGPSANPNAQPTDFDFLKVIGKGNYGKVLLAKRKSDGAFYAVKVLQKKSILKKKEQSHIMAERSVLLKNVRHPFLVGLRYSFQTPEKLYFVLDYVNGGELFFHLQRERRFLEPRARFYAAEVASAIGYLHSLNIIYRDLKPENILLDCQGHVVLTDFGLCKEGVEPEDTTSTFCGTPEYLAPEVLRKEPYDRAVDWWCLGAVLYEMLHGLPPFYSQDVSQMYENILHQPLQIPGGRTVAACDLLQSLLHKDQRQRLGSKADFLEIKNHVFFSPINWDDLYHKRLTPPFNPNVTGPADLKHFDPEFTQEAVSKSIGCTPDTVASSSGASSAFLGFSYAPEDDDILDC
Test [12] has as its target Serine/threonine-protein kinase Nek4 (Homo sapiens) (UniProt P51957). Put plainly: Inhibition of wild-type human full length NEK4 (M1 to F841 residues) expressed in mammalian expression system at 1 uM by Kinomescan method relative to control.
The test system of test [13] is Tyrosine-protein kinase ABL1 (Homo sapiens), P00519 [T315I]. Briefly: Inhibition of human phosphorylated ABL1 T315I mutant (S229 to K512 residues) expressed in mammalian expression system at 1 uM by Kinomescan method relative to control.
In test [14] the target is NUAK family SNF1-like kinase 1 (Homo sapiens) (UniProt O60285). Briefly: Inhibition of wild-type human partial length ARK5 (E25 to I332 residues) expressed in bacterial expression system at 1 uM by Kinomescan method relative to control.
For test [15], the target named is Calcium/calmodulin-dependent protein kinase kinase 2 (Homo sapiens) (UniProt Q96RR4). Put plainly: Inhibition of wild-type human partial length CAMKK2 (D65 to V471 residues) expressed in bacterial expression system at 1 uM by Kinomescan method relative to control.
Test [16] has as its target Casein kinase I isoform delta (Homo sapiens) (UniProt P48730). Briefly: Inhibition of wild-type human full length CSNK1D (M1 to K409 residues) expressed in bacterial expression system at 10 uM by Kinomescan method relative to control.
Test [17] addresses Serine/threonine-protein kinase 38-like (Homo sapiens) (UniProt Q9Y2H1). Briefly: Inhibition of wild-type human partial length NDR2 (N34 to E447 residues) expressed in bacterial expression system at 10 uM by Kinomescan method relative to control.
The subject of test [18] is Phosphatidylinositol 4,5-bisphosphate 3-kinase catalytic subunit alpha isoform (Homo sapiens), P42336 [E542K]. Put plainly: Inhibition of human partial length PIK3CA E542K mutant (R108 to N1068 residues) expressed in mammalian expression system at 10 uM by Kinomescan method relative to control.
For test [19], the target named is Ephrin type-B receptor 4 (Homo sapiens) (UniProt P54760). Briefly: Inhibition of wild-type human partial length EPHB4 (H585 to G892 residues) expressed in bacterial expression system at 10 uM by Kinomescan method relative to control.
Test [20] has as its target cGMP-dependent protein kinase 2 (Homo sapiens) (UniProt Q13237). Put plainly: Inhibition of wild-type human partial length PRKG2 (S422 to F762 residues) expressed in mammalian expression system at 10 uM by Kinomescan method relative to control.
For test [21], the target named is Cyclin-G-associated kinase (Homo sapiens) (UniProt O14976). Put plainly: Inhibition of wild-type human partial length GAK (G13 to Y338 residues) expressed in bacterial expression system at 10 uM by Kinomescan method relative to control.
Test [22] addresses Ribosomal protein S6 kinase alpha-6 (Homo sapiens) (UniProt Q9UK32). Put plainly: Inhibition of wild-type human partial length N-terminal RSK4 kinase domain 1 (M1 to E397 residues) expressed in mammalian expression system at 10 uM by Kinomescan method relative to control.
Test [23] deals with Activin receptor type-1B (Homo sapiens) (UniProt P36896). Put plainly: Inhibition of wild-type human ACVR1B (S187 to I505 residues) expressed in bacterial expression system at 10 uM by Kinomescan method relative to control.
Test [24] has as its target RAC-beta serine/threonine-protein kinase (Homo sapiens) (UniProt P31751). Put plainly: Inhibition of wild-type human partial length AKT2 expressed in bacterial expression system at 10 uM by Kinomescan method relative to control.
Test [25] concerns the target MAP kinase-activated protein kinase 2 (Homo sapiens) (UniProt P49137). Briefly: Inhibition of wild-type human partial length MAPKAPK2 (V48 to D345 residues) expressed in bacterial expression system at 10 uM by Kinomescan method relative to control.
Test [26] has as its target TRAF2 and NCK-interacting protein kinase (Homo sapiens) (UniProt Q9UKE5). Briefly: Inhibition of wild-type human partial length TNIK (D4 to K311 residues) expressed in bacterial expression system at 10 uM by Kinomescan method relative to control.
In test [27] the test system is Proto-oncogene tyrosine-protein kinase receptor Ret (Homo sapiens), P07949 [V804L]. Briefly: Inhibition of human partial length RET V804L mutant (E713 to D1014 residues) expressed in bacterial expression system at 10 uM by Kinomescan method relative to control.

Each structure is given as a SMILES string.

These results are taken from ChEMBL document CHEMBL4387741, “Optimization of novel reversible Bruton's tyrosine kinase inhibitors identified using Tethering-fragment-based screens” (Bioorg Med Chem, 2019).

Sequence of Phosphatidylinositol 4,5-bisphosphate 3-kinase catalytic subunit alpha isoform (Homo sapiens), P42336 [E542K] (P42336 whole entry E542K, the tested form may be a part, canonical isoform): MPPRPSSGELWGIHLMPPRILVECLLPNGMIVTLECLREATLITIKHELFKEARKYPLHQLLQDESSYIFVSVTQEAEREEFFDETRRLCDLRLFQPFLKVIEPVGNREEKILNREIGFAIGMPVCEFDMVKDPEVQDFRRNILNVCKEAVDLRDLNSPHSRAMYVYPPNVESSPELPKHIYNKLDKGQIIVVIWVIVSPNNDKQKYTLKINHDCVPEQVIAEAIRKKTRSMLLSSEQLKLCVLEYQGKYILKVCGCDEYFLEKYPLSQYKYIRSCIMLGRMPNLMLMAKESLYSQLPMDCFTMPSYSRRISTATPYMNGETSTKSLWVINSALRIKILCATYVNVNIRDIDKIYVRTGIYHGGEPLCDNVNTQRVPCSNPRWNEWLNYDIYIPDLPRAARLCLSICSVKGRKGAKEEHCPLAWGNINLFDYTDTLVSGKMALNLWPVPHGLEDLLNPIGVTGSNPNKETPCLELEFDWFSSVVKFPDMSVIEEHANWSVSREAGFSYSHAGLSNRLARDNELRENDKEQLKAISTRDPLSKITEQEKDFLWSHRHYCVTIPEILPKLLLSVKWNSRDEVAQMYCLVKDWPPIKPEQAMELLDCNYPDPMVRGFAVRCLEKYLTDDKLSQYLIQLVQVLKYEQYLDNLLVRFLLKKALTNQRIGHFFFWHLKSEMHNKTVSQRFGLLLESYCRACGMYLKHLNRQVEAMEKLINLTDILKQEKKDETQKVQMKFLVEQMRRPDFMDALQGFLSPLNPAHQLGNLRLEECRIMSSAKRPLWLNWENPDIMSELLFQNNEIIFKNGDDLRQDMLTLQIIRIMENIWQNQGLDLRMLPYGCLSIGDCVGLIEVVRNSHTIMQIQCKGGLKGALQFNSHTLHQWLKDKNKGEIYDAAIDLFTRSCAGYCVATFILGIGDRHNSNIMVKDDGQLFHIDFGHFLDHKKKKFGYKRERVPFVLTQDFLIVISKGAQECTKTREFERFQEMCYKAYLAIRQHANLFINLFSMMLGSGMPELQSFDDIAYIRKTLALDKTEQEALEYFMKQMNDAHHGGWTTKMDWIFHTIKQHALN
Sequence of Transient receptor potential cation channel subfamily M member 6 (Homo sapiens) (Q9BX84 whole entry, the tested form may be a part): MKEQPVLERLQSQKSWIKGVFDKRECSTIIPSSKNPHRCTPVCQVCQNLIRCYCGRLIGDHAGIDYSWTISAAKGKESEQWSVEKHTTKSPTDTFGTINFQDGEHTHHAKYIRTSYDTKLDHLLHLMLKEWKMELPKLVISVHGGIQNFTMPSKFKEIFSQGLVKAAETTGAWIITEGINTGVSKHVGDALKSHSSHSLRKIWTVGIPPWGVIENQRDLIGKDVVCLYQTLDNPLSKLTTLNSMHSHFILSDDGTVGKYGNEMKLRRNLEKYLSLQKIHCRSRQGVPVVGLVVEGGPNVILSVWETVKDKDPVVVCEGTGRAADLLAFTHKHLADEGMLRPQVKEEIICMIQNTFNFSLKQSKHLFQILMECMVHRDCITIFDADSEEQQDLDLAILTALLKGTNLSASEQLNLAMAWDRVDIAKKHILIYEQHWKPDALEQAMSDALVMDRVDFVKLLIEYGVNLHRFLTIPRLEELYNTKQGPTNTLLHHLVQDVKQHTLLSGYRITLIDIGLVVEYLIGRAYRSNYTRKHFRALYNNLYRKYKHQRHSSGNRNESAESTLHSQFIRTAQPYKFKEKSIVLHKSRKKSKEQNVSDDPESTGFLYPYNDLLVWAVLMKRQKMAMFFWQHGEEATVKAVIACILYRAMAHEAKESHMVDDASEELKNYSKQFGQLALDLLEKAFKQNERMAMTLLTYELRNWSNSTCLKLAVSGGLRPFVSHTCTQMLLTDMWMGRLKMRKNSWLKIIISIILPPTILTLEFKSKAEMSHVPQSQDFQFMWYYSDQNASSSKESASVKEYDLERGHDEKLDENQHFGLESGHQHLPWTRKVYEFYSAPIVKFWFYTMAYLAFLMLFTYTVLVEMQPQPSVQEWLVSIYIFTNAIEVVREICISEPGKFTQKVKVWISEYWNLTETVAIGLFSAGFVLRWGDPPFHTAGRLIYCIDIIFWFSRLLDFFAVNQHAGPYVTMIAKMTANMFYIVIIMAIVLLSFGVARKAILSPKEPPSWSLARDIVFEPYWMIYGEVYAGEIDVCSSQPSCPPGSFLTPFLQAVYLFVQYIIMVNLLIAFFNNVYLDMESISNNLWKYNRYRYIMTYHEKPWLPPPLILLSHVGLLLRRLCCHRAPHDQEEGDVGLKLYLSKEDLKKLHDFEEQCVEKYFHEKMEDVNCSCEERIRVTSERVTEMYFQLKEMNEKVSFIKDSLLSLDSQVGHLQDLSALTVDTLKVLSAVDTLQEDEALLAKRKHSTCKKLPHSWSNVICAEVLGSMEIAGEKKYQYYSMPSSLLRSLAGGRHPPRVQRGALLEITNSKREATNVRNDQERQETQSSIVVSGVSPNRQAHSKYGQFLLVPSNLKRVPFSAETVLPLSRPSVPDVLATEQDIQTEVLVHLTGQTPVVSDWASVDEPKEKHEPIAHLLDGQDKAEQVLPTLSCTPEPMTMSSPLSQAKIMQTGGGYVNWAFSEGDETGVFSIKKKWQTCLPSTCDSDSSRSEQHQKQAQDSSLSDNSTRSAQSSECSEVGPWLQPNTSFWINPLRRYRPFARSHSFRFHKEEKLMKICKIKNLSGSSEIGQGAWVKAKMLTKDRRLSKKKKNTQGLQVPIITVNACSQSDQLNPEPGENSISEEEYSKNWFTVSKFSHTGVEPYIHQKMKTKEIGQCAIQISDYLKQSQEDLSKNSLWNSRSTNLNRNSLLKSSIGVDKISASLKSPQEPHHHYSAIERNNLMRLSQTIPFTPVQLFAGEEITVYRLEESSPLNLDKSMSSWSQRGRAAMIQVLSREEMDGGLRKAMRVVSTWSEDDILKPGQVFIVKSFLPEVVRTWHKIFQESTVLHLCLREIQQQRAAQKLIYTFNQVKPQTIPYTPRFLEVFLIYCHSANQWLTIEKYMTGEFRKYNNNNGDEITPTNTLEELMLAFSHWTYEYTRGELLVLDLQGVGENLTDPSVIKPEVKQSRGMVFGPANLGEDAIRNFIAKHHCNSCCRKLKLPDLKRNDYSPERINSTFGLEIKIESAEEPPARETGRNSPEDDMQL
Sequence of G protein-coupled receptor kinase 4 (Homo sapiens) (P32298 whole entry, looked up, the tested form may be a part): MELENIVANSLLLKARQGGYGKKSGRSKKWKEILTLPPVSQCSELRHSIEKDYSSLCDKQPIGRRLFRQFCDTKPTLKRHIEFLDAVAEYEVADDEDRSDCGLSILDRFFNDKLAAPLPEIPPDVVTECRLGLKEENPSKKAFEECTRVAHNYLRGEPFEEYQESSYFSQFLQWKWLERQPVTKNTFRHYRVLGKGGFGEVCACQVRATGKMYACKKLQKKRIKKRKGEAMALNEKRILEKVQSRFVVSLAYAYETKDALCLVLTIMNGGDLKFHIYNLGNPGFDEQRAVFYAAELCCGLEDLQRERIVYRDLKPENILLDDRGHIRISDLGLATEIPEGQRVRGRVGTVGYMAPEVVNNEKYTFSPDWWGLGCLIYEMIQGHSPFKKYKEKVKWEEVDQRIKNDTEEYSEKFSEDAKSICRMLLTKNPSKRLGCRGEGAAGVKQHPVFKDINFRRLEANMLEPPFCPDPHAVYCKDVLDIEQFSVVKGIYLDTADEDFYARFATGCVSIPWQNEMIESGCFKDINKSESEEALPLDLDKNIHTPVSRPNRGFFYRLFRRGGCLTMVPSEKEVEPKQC
Sequence of Serine/threonine-protein kinase Nek4 (Homo sapiens) (P51957 whole entry, looked up, the tested form may be a part): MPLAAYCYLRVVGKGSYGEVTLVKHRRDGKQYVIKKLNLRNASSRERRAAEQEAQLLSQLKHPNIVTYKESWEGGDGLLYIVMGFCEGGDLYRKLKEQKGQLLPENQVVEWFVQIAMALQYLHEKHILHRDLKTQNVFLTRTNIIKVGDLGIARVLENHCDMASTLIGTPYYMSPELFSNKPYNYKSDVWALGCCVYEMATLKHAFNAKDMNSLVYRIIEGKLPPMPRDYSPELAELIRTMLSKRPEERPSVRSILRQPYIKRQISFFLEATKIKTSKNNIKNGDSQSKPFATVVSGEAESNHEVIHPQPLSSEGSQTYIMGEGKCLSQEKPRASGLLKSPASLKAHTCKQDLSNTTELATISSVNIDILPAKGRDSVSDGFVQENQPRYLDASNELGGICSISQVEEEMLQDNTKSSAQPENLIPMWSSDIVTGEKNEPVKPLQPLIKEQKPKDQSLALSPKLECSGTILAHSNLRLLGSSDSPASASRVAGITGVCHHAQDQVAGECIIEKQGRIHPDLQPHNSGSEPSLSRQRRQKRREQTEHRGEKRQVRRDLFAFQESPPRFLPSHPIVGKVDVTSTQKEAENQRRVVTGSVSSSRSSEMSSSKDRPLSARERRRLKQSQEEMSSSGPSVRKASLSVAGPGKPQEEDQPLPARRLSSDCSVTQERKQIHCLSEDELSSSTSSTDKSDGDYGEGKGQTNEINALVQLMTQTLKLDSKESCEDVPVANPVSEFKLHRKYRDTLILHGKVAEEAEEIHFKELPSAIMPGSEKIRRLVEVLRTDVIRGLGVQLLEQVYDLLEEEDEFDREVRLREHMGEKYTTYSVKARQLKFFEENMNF

As usually defined, the inhibition is the relative decrease from the control value, in per cent. In the case of `O=C(Nc1cccc([C@@H]2CN(c3ncnc4[nH]ccc34)CCN2CCO)c1)Nc1c(F)cccc1N1CCCC1`, the inhibition was 100% in test [1]; 74% in test [2]; 79% in test [3]; 66% in test [4]; 80% in [5]; 85% in [6]. Besides, the inhibition in [7] was 71%; in test [8], 65%; in [9], 100%; in test [10], 100%; in test [11], 63%; in test [12], 86%. Moreover, the inhibition in [13] worked out at 93%; in test [14], 45%; in test [15] it was 94%.

In the case of `O=C(Nc1cccc([C@H]2CCCN(c3ncnc4[nH]ccc34)C2)c1)Nc1ccccc1N1CCCC1`, the inhibition in test [16] was found to be 100%; in test [17], 100%; in test [18], 81%; in test [19], 98%; in [20], 54%; in test [21], 24%. Moreover, the inhibition in test [22] was found to be 34%; in test [23], 100%; in test [24] it was 100%; in test [25], 100%; in test [26], 26%; in test [27] it was 0.1%.
